Assay results from ChEMBL document CHEMBL4130493, “An insight into the biological activities of heterocyclic-fatty acid hybrid molecules” (Eur J Med Chem, 2017).
Converted amounts (≈) assume the structure as drawn.

Experiments:
[1] = tested on: Escherichia coli; test: Antibacterial activity against Escherichia coli MTCC 40 incubated for 24 hrs by serial two-fold dilution method; type: functional; settings: MTCC 40, 24 h
[2] = tested on: Pseudomonas aeruginosa; test: Antibacterial activity against Pseudomonas aeruginosa MTCC 2453 incubated for 24 hrs by serial two-fold dilution method; type: functional; settings: MTCC 2453, 24 h
[3] = tested on: Staphylococcus aureus; test: Antibacterial activity against Staphylococcus aureus MSSA 22 at 100 ug/mL incubated for 24 hrs by filter paper disc method; type: functional; settings: MSSA 22, 24 h, read-out: DIZ
[4] = tested on: Bacillus subtilis; test: Antibacterial activity against Bacillus subtilis ATCC 6051 at 100 ug/mL incubated for 24 hrs by filter paper disc method; type: functional; settings: ATCC 6051, 24 h, read-out: DIZ
[5] = tested on: Escherichia coli; test: Antibacterial activity against Escherichia coli K-12 at 100 ug/mL incubated for 24 hrs by filter paper disc method; type: functional; settings: K-12, 24 h, read-out: DIZ
[6] = tested on: Salmonella typhimurium; test: Antibacterial activity against Salmonella typhimurium MTCC98 at 100 ug/mL incubated for 24 hrs by filter paper disc method; type: functional, Salmonella enterica subsp. enterica serovar Typhimurium; settings: Salmonella enterica, MTCC98, 24 h; read-out: DIZ
[7] = tested on: Candida albicans; test: Antifungal activity against Candida albicans IOA-109 at 100 ug/mL incubated for 18 to 48 hrs by agar disc diffusion method; type: functional; settings: read-out: DIZ
[8] = tested on: A549; test: Cytotoxicity in human A549 cells by SRB assay; type: functional; settings: read-out: TC50 (the source's name)
[9] = tested on: Candida albicans; test: Antifungal activity against Candida albicans IOA-109 at 50 ug/disc incubated for 5 to 6 days by disc diffusion method; type: functional; settings: read-out: DIZ
[10] = tested on: Plasmodium falciparum; test: Antimalarial activity against Plasmodium falciparum infected in erythrocytes assessed as inhibition of increase in parasite density after 72 hrs; type: functional, organism-based
[11] = tested on: Hep 3B2; test: Cytotoxicity in human Hep3B cells incubated for 48 hrs by MTT assay; type: functional, cell-based

MIC [1] [µg/mL] | MIC [2] [µg/mL] | SMILES | zone of inhibition at 100 µg/mL [3] [mm] | zone of inhibition at 100 µg/mL [4] [mm] | zone of inhibition at 100 µg/mL [5] [mm] | zone of inhibition at 100 µg/mL [6] [mm] | zone of inhibition at 100 µg/mL [7] [mm] | other results
0.35 to 0.7 (≈ 0.828 to 1.66 µM) | 0.35 to 0.7 (≈ 0.828 to 1.66 µM) | CCCCCCCCCCCCCC(=O)NN1C(=O)CSC1c1ccc(F)cc1 (stereo unspecified) |  |  |  |  |  | 
 |  | CCCCCCCCCCCCCCCCCc1nc(-c2cccc(O)c2)n[nH]1 | 13.1 to 22.2 | 13.1 to 22.2 | 13.1 to 22.2 | 13.1 to 22.2 | 17.2 to 19 | 
0.35 to 0.7 (≈ 0.749 to 1.5 µM) | 0.35 to 0.7 (≈ 0.749 to 1.5 µM) | CCCCCCCCCCCCCCCC(=O)NN1C(=O)CSC1c1ccc(Cl)cc1 (stereo unspecified) |  |  |  |  |  | 
 |  | CCCCCCCCCCCCCCCCCc1nnc(S)n1N |  |  |  |  |  | CC50 [8]: 0.282 µM
 |  | CCCCCCCCCCCCCCCCCc1nc(-c2ccc(O)c(O)c2)n[nH]1 | 13.1 to 22.2 | 13.1 to 22.2 | 13.1 to 22.2 | 13.1 to 22.2 | 17.2 to 19 | 
0.35 to 0.7 (≈ 0.865 to 1.73 µM) | 0.35 to 0.7 (≈ 0.865 to 1.73 µM) | CCCCCCCCCCCCCC(=O)NN1C(=O)CSC1c1ccccc1 (stereo unspecified) |  |  |  |  |  | 
0.35 to 0.7 (≈ 0.777 to 1.55 µM) | 0.35 to 0.7 (≈ 0.777 to 1.55 µM) | CCCCCCCCCCCCCCCC(=O)NN1C(=O)CSC1c1ccc(F)cc1 (stereo unspecified) |  |  |  |  |  | 
0.35 to 0.7 (≈ 0.809 to 1.62 µM) | 0.35 to 0.7 (≈ 0.809 to 1.62 µM) | CCCCCCCCCCCCCCCC(=O)NN1C(=O)CSC1c1ccccc1 (stereo unspecified) |  |  |  |  |  | 
 |  | CCCCCCC(O)C/C=C\CCCCCCCc1nc(-c2ccccc2)n[nH]1 (stereo unspecified) | 13.1 to 22.2 | 13.1 to 22.2 | 13.1 to 22.2 | 13.1 to 22.2 | 17.2 to 19 | 
 |  | CC/C=C\C/C=C\C/C=C\CCCCCCCc1nnc(S)n1N |  |  |  |  |  | CC50 [8]: 0.264 µM
 |  | CCCCC/C=C\CCC(O)CCCCCCCc1nc(-c2ccc(O)c(O)c2)n[nH]1 (stereo unspecified) | 13.1 to 22.2 | 13.1 to 22.2 | 13.1 to 22.2 | 13.1 to 22.2 | 17.2 to 19 | 
 |  | C=CCCCCCCCCc1nc(-c2ccccc2)n[nH]1 | 13.1 to 22.2 | 13.1 to 22.2 | 13.1 to 22.2 | 13.1 to 22.2 | 17.2 to 19 | 
 |  | CCCCCCCC(O)CC/C=C\CCCCCC(=O)n1nnc2ccccc21 (stereo unspecified) |  |  |  |  |  | zone of inhibition at 50 µg/disc [9]: 16 to 20 mm
 |  | CCCCCCC(O)C/C=C\CCCCCCCc1nc(-c2cccc(O)c2)n[nH]1 (stereo unspecified) | 13.1 to 22.2 | 13.1 to 22.2 | 13.1 to 22.2 | 13.1 to 22.2 | 17.2 to 19 | 
0.35 to 0.7 (≈ 0.805 to 1.61 µM) | 0.35 to 0.7 (≈ 0.805 to 1.61 µM) | CCCCCCCCCCCCCC(=O)NN1C(=O)CSC1c1ccc(OC)cc1 (stereo unspecified) |  |  |  |  |  | 
 |  | C=C[C@H]1CN2CC[C@H]1C[C@H]2[C@H](O/C=C/C=C/CCCCCCCCCCCCCC)c1ccnc2ccc(OC)cc12 |  |  |  |  |  | EC50 [10]: 7 to 20 µM
 |  | CCCCCCCCCCCCCCCCCc1nnc(S)o1 |  |  |  |  |  | CC50 [8]: 0.143 µM
0.35 to 0.7 (≈ 0.756 to 1.51 µM) | 0.35 to 0.7 (≈ 0.756 to 1.51 µM) | CCCCCCCCCCCCCCCC(=O)NN1C(=O)CSC1c1ccc(OC)cc1 (stereo unspecified) |  |  |  |  |  | 
0.35 to 0.7 (≈ 0.724 to 1.45 µM) | 0.35 to 0.7 (≈ 0.724 to 1.45 µM) | CCCCCCCCCCCCCC(=O)NN1C(=O)CSC1c1ccc(Br)cc1 (stereo unspecified) |  |  |  |  |  | 
 |  | C=C[C@H]1CN2CC[C@H]1C[C@H]2[C@H](O/C=C/C=C/C=C/C=C/C=C/CCCCCCCCCC)c1ccnc2ccc(OC)cc12 |  |  |  |  |  | EC50 [10]: 7 to 20 µM
 |  | C=CCCCCCCCCc1nc(-c2cccc(O)c2)n[nH]1 | 13.1 to 22.2 | 13.1 to 22.2 | 13.1 to 22.2 | 13.1 to 22.2 | 17.2 to 19 | 
 |  | C=C[C@H]1CN2CC[C@H]1C[C@H]2[C@H](OCCCCCCCCCCCC)c1ccnc2ccc(OC)cc12 |  |  |  |  |  | EC50 [10]: 7 to 20 µM
 |  | C=CCCCCCCCCc1nc(-c2ccc(O)c(O)c2)n[nH]1 | 13.1 to 22.2 | 13.1 to 22.2 | 13.1 to 22.2 | 13.1 to 22.2 | 17.2 to 19 | 

MIC [1] [µg/mL] | MIC [2] [µg/mL] | SMILES | zone of inhibition at 100 µg/mL [3] [mm] | zone of inhibition at 100 µg/mL [4] [mm] | zone of inhibition at 100 µg/mL [5] [mm] | zone of inhibition at 100 µg/mL [6] [mm] | zone of inhibition at 100 µg/mL [7] [mm] | other results
0.35 to 0.7 (≈ 0.836 to 1.67 µM) | 0.35 to 0.7 (≈ 0.836 to 1.67 µM) | CCCCCCCCCCCCCC(=O)NN1C(=O)CSC1c1ccc(C)cc1 (stereo unspecified) |  |  |  |  |  | 
0.35 to 0.7 (≈ 0.733 to 1.47 µM) | 0.35 to 0.7 (≈ 0.733 to 1.47 µM) | CCCCCCCCCCCCCCCC(=O)NN1C(=O)CSC1c1ccc([N+](=O)[O-])cc1 (stereo unspecified) |  |  |  |  |  | 
0.35 to 0.7 (≈ 0.778 to 1.56 µM) | 0.35 to 0.7 (≈ 0.778 to 1.56 µM) | CCCCCCCCCCCCCC(=O)NN1C(=O)CSC1c1ccc([N+](=O)[O-])cc1 (stereo unspecified) |  |  |  |  |  | 
0.35 to 0.7 (≈ 0.684 to 1.37 µM) | 0.35 to 0.7 (≈ 0.684 to 1.37 µM) | CCCCCCCCCCCCCCCC(=O)NN1C(=O)CSC1c1ccc(Br)cc1 (stereo unspecified) |  |  |  |  |  | 
 |  | CC/C=C\C/C=C\C/C=C\CCCCCCCc1nnc(S)o1 |  |  |  |  |  | CC50 [8]: 0.149 µM
 |  | C=CCCCCCCCCc1n[nH]c(=S)n1N |  |  |  |  |  | IC50 [11]: 9.2 µM
 |  | CCCCCCCCCCCCCCCCCc1nc(-c2ccccc2)n[nH]1 | 13.1 to 22.2 | 13.1 to 22.2 | 13.1 to 22.2 | 13.1 to 22.2 | 17.2 to 19 | 
 |  | C=CCCCCCCCCc1n[nH]c(=S)o1 |  |  |  |  |  | IC50 [11]: 8.94 µM
 |  | CCCCC/C=C\CCC(O)CCCCCCCc1nc(-c2cccc(O)c2)n[nH]1 (stereo unspecified) | 13.1 to 22.2 | 13.1 to 22.2 | 13.1 to 22.2 | 13.1 to 22.2 | 17.2 to 19 | 
 |  | CCCCCCCC/C=C\C(O)CCCCCCC(=O)n1nnc2ccccc21 (stereo unspecified) |  |  |  |  |  | zone of inhibition at 50 µg/disc [9]: 16 to 20 mm
0.35 to 0.7 (≈ 0.832 to 1.66 µM) | 0.35 to 0.7 (≈ 0.832 to 1.66 µM) | CCCCCCCCCCCCCC(=O)NN1C(=O)CSC1c1ccc(O)cc1 (stereo unspecified) |  |  |  |  |  | 
 |  | C=C[C@H]1CN2CC[C@H]1C[C@H]2[C@H](OCCCCCCCC/C=C\C/C=C\C/C=C\CC)c1ccnc2ccc(OC)cc12 |  |  |  |  |  | EC50 [10]: 7 to 20 µM
0.35 to 0.7 (≈ 0.784 to 1.57 µM) | 0.35 to 0.7 (≈ 0.784 to 1.57 µM) | CCCCCCCCCCCCCCCC(=O)NN1C(=O)CSC1c1ccc(C)cc1 (stereo unspecified) |  |  |  |  |  | 
 |  | CCCCC/C=C\CCC(O)CCCCCCCc1nc(-c2ccccc2)n[nH]1 (stereo unspecified) | 13.1 to 22.2 | 13.1 to 22.2 | 13.1 to 22.2 | 13.1 to 22.2 | 17.2 to 19 | 
 |  | CCCCCCC(O)C/C=C\CCCCCCCc1nc(-c2ccc(O)c(O)c2)n[nH]1 (stereo unspecified) | 13.1 to 22.2 | 13.1 to 22.2 | 13.1 to 22.2 | 13.1 to 22.2 | 17.2 to 19 | 
0.35 to 0.7 (≈ 0.797 to 1.59 µM) | 0.35 to 0.7 (≈ 0.797 to 1.59 µM) | CCCCCCCCCCCCCC(=O)NN1C(=O)CSC1c1ccc(Cl)cc1 (stereo unspecified) |  |  |  |  |  | 
 |  | C=C[C@H]1CN2CC[C@H]1C[C@H]2[C@H](O/C=C/C=C/C=C/C=C/C=C/C=C/CCCCCCCCCC)c1ccnc2ccc(OC)cc12 |  |  |  |  |  | EC50 [10]: 7 to 20 µM
 |  | CCCCCCCC/C=C\CCCCCCCc1nc(-c2ccccc2)n[nH]1 | 13.1 to 22.2 | 13.1 to 22.2 | 13.1 to 22.2 | 13.1 to 22.2 | 17.2 to 19 | 
 |  | CCCCCCCC/C=C\CCCCCCCc1nc(-c2cccc(O)c2)n[nH]1 | 13.1 to 22.2 | 13.1 to 22.2 | 13.1 to 22.2 | 13.1 to 22.2 | 17.2 to 19 | 
 |  | C=C[C@H]1CN2CC[C@H]1C[C@H]2[C@H](OCCCCCCCCCCCCCCCCCC)c1ccnc2ccc(OC)cc12 |  |  |  |  |  | EC50 [10]: 7 to 20 µM
0.35 to 0.7 (≈ 0.78 to 1.56 µM) | 0.35 to 0.7 (≈ 0.78 to 1.56 µM) | CCCCCCCCCCCCCCCC(=O)NN1C(=O)CSC1c1ccc(O)cc1 (stereo unspecified) |  |  |  |  |  | 
 |  | CCCCCCCC/C=C\CCCCCCCc1nc(-c2ccc(O)c(O)c2)n[nH]1 | 13.1 to 22.2 | 13.1 to 22.2 | 13.1 to 22.2 | 13.1 to 22.2 | 17.2 to 19 | 
